# From paper PMC6986443, “T‐495, a novel low cooperative M1 receptor positive allosteric modulator, improves memory deficits associated with cholinergic dysfunction and is characterized by low gastrointestinal side effect risk” (Pharmacology Research & Perspectives, 2020)
# How the values were obtained:
# [1] = tested on: SD rats; conditions: rats, donepezil 0.1 mg/kg p.o. alone; combination study; rats with effect/total
# Description: Seven‐ or 8‐week‐old SD rats were individually placed into observation cages. After an acclimation period of at least 1 hour, a test compound was administered to the rats. […] Cholinergic side effects, including diarrhea, lacrimation, salivation, miosis, and fasciculation, were assessed blindly, as described previously,27 and convulsion was scored using a modified Racine scale,37 as follows: stage 0, normal; stage 1, immobility; stage 2, forelimb and/or tail extension and rigid posture; stage 3, repetitive movements, head nodding, and gnawing; stage 4, rearing and falling; stage 5, continuous rearing and falling; stage 6, severe tonic‐clonic seizure with loss of postural control; and stage 7, death in the first 2 hours.
# [2] = tested on: CaMKIIα‐tTA/A53T α‐syn dTg mice; assay: Y‐maze task; type: in vivo, mouse; conditions: 1 mg/kg p.o. (P = .12)
# Description: The Y‐maze was fabricated from gray plastic and consisted of three arms (40 cm long, 12 cm high, 3 cm wide at the bottom, and 10 cm wide at the top) with an angle of 120°. Visual cues were placed outside each arm, and the apparatus was illuminated at 10 lux. […] An arm entry was defined as all four paws of the mouse being in the arm, and the sequence of arm entries was monitored with a video camera and counted manually. An alternation was defined as successive entries into the three arms on overlapping triplet sets.36 The percentage of alternation was calculated as the ratio of actual to possible alternations (total number of arm entries minus 2) multiplied by 100.
# [3] = tested on: rats pretreated with scopolamine; design: method as in PMID 30089885; conditions: 0.1 mg/kg; cited from earlier work
# [4] = tested on: M1R; design: method as in PMID 30089885; conditions: cited from earlier work
# [5] = tested on: rats; design: method as in PMID 30089885; conditions: cited from earlier work
# [6] = tested on: M1R; design: method as in PMID 30089885; conditions: at concentrations required for procognitive efficacy; cited from earlier work
SMILES,Convulsion [1],Fasciculation [1],Lacrimation [1],"Loose, mucous stool, or diarrhea [1]",Myosis [1],Salivation [1],reduced percentage of alternations [2],"scopolamine‐induced NDI reduction, retention trial [3]",α‐value (cooperativity) [4],"scopolamine‐induced cognitive impairment, combination with an AChEI [5]",difference between doses improving cognitive function and doses inducing diarrhea ([5]; rats) [fold],inhibition of the binding of scopolamine to M1R [6]
"COc1cc2c(cc1OC)C(=O)C(CC1CCN(Cc3ccccc3)CC1)C2 (stereo not drawn) [donepezil, reference compound]",0/6,0/6,0/6,0/6,0/6,0/6,tended to reverse,subeffective,,,,
Cc1c(Cc2ccc(-n3cccn3)cc2)cc2c(c1F)CN([C@H]1COCC[C@@H]1O)C2=O [TAK‐071],,,,,,,,,199,synergistically improved,33,did not inhibit
